Results taken from patent US10294228B2, “Breathing control modulating compounds, and methods of making and using same” (NEURAD LTD., priority 2015, dated 2019).
Structures can show the parent of a compound that is named as a salt.

Columns and labels:
[1] = Polymorphic transformation by exposure to humidity; format: physicochemical; conditions: >80% humidity, three days, ambient temperature; confirmed by XRPD and DSC
Experimental: Approximately 10 mg of the solid as its initially obtained polymorphic form were placed in a 4 mL open vial. In a 20 mL vial, about 5 mL of distilled water were added and heated to about 50° C., then the vial was capped, and the contents were cooled for about 30 minutes at ambient temperature. Then the 20 mL vial was uncapped, the smaller vial was placed inside the bigger vial, the bigger vial was recapped, and the sample in the smaller vial was exposed and aged in an environment of approximately 80-95% relative humidity at ambient temperature for 3 days. Polymorphic transformation was confirmed by XRPD and DSC vs. that for the initially obtained polymorphic form.

anesthetized rats = test: Anesthetized rat spirometry screening assay (ventilatory activity, minute volume); format: in vivo; conditions: increase in minute volume (VE); for change in vivo at 0.3 mg/kg: 0.3 mg/kg IV bolus, read-out: VE % Inc @ 0.3 mg/kg IV; for change in vivo at 3 mg/kg: 3.0 mg/kg IV bolus, read-out: VE % Inc @ 3.0 mg/kg IV
Summary of the method: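 Urethane-anesthetized (1.5 g/kg i.v.) rats with tracheal cannula to pneumotachometer; minute volume derived from respiratory rate × tidal volume. Compounds given as i.v. bolus at 0.1 and/or 0.3 and/or 3 mg/kg, monitored at least 6 min; data as 30 s averages.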

Row | Structure (SMILES) | polymorphic transformation on exposure to humidity [1] | change in vivo at 0.3 mg/kg (anesthetized rats) [%] | change in vivo at 3 mg/kg (anesthetized rats) [%]
1 | CCCNc1nc(NC)nc2c(NCC(C)(C)O)nc(NC)nc12 [Compound 31d-1, 1-(2,6-Bis-methylamino-8-propylamino-pyrimido[5,4-d]pyrimidin-4-ylamino)-2-methyl-propan-2-ol] | converted to form Mal-B (31d-2) | – | –
2 | CCCNc1nc(NC)nc2c(NCC(C)(C)O)nc(NC)nc12 [Compound 31h-1, 1-(2,6-Bis-methylamino-8-propylamino-pyrimido[5,4-d]pyrimidin-4-ylamino)-2-methyl-propan-2-ol] | converted to form Tos-B (31h-2) | – | –
3 | CCCNc1nc(NC)nc2c(NCC3(O)CCC3)nc(NC)nc12 [Compound 72a, 1-[(2,6-Bis-methylamino-8-propylamino-pyrimido[5,4-d]pyrimidin-4-ylamino)-methyl]-cyclobutanol Hydrochloride] | – | 132 | 150
4 | CCCNc1nc(NC)nc2c(N[C@H]3c4ccccc4C[C@H]3O)nc(NC)nc12 [Compound 79, (1S,2R)-1-(2,6-Bis-methylamino-8-propylamino-pyrimido[5,4-d]pyrimidin-4-ylamino)-indan-2-ol] | – | 56 | 162
5 | CCNc1nc(NC)c2nc(NCC(O)CC)nc(NC)c2n1 (centres unmarked) [Compound 147, 1-(6-Ethylamino-4,8-bis-methylamino-pyrimido[5,4-d]pyrimidin-2-ylamino)-butan-2-ol] | – | 31 | 147
